Assay results: patent publication US20230116196A1, “METHOD OF TREATING CNS DISORDERS WITH NEU[…] GABAERGIC COMPOUNDS” (priority 2017, published 2023)

How the values were obtained:
[1] = test system: DGGCs from mutant mice; experiment: sIPSC decay time in DGGCs from mutant mice; format: cell-based, mouse; conditions: 100 nM ALLO
Description: The ability of 100 nM ALLO to modulate the decay time of sIPSCs was compared in DGGCs from WT and S940A mice as detailed in FIG. 2.

[2] = test system: GT1-7 cells; experiment: Immunoblot of β3 S408/9 phosphorylation in GT1-7 cells; format: cell-based; conditions: 100 nM, 15 min
Description: GT1-7 cells that co-express mPRα and GABAARs were used to measure the level of phosphorylation at S408/9 position of β3 subunit. […] Expression of mPRα was confirmed using western blotting.
GT1-7 cells were treated with 100 nM AllO or P4 for 15 min and immunoblotted with antibodies specifically recognizing β3, actin, and […] β3 subunit (pS408/9). The ratio of pS408/9 β3 subunit immunoreactivity were then normalized to levels seen in vehicle treated to controls, n=6.

[3] = test system: GT1-7 cells; experiment: Patch-clamp of GABA-induced currents (IGABA) in GT1-7 cells; format: cell-based; conditions: 100 nM in electrolyte, GABA EC20, 20 min time course
Description: Patch-clamp recordings were made from GT1-7 cells. The magnitude of the GABA-induced currents (IGABA) at EC20 agonists concentration were then measured, in the presence of control electrolyte or that supplemented with 100 nM ALLO, or 100 nM ORG OD 02-0 over a time course of 20 min.

[4] = test system: dentate gyrus granule cells (DGGCs); experiment: sIPSCs in DGGCs after 15 min NAS exposure and >30 min wash; format: cell-based, mouse
Description: Bar graphs show average sIPSC decay and amplitude.
For tonic current measurements, an all-points histogram was plotted for a 10 s period before and during 100 μM picrotoxin application, once the response reached a plateau level. Recordings with unstable baselines were discarded. Fitting the histogram with a Gaussian distribution gave the mean baseline current amplitude and the difference between the amplitudes before and during picrotoxin was considered to be the tonic current. The negative section of the all-points histogram which corresponds to the inward IPSCs was not fitted with a Gaussian distribution (Kretschmannova et al., 2013; Nusser and Mody, 2002). Series resistance and whole-cell capacitance were continually monitored and compensated throughout the course of the experiment. Recordings were eliminated from data analysis if series resistance increased by >20%. Spontaneous inhibitory post-synaptic currents (sIPSCs) were analyzed using the mini-analysis software (version 5.6.4; Synaptosoft, Decatur, Ga.). […] Only recordings with a minimum of 200 events fitting these criteria were analyzed. sIPSCs amplitude, and frequency from each experimental condition was pooled and expressed as mean±SEM. To measure sIPSC decay, 100 consecutive events were averaged and the decay was fitted to a double exponential and the weighted decay constant (tw) was determined. […]

[5] = test system: GABAA receptor α4 subunit S443; experiment: Immunoblot of α4 S443 phosphorylation in hippocampal slices; format: cell-based, mouse; conditions: 100 SGE-516 for 5 min
Description: Treatment of hippocampal slices with SGE-516 increased the phosphorylation of S408/9 measured using pS408/9 antibodies. To produce antibodies specific for phosphorylated S443, rabbits were injected with a synthetic peptide corresponding to residues […] of the murine α4 subunit in which the serine residue corresponding to S443 was chemically phosphorylated; […]. Hippocampal slices were treated with vehicle (Con), or SGE-516 for 20 min. Slices were immunoblotted with pS408/9, β3, or actin antibodies. The ratio of pS408/9/β3 immunoreactivity was then normalized to control slices (100%=the line).
Affinity purified pS443 was used to immunoblot varying concentrations of the immunizing phosphor-peptide (PP). pS443 was used to immunoblot extracts of hippocampal slices treated without preadsorption (0), preadsorbed with the dephosphorylated (DP), or phosphorylated antigen (PP). […] Moreover, the detection of this band was blocked by the phospho—but not the dephospho-antigen (FIG. 7B).
Hippocampal slices were treated with vehicle (Con) or 100 SGE-516 for 5 min and then immunoblotted with pS443 and α4 antibodies as indicated. pS443 immunoreactivity in hippocampal slices was increased by exposure to SGE-516, while total α4 levels were unaffected (FIG. 7C).

[6] = test system: GABAA receptor α4 S443 and β3 S408/9; experiment: Phosphorylation of S443 and S408/9 in brains of mice after IP injection; format: in vivo, mouse; conditions: 5 mg/kg IP, 30 min after treatment
Description: C57/B16 mice injected with SGE-516 (5 mg/kg IP), or vehicle. 30 min after the treatment mice were sacrificed by microwave irradiation. SDS-soluble hippocampal extracts were then immunoblotted with pS443, α4, pS408/9, or β3 subunit antibodies.

[7] = test system: DGGCs from S408/9A mice; experiment: Sustained effect on tonic current in DGGCs from S408/9A mice; format: cell-based, mouse; conditions: 100 nM, washout
[8] = test system: GABAARs containing the α4 and β subunits, S408/9A mice; experiment: Biotinylation: cell surface levels of GABAARs in hippocampal slices from S408/9A mice; format: cell-based, mouse; conditions: 100 nM, 20 min
Description: Consistent with the examples above, hippocampal slices from WT and S408/9A mice were treated for 20 min with 100 nM SGE-516 or vehicle (Con) and subjected to biotinylation followed by immunoblotting with β and α4 subunit antibodies. The ratio of surface/total (S/T) immunoreactivity was then normalized to levels seen in control (100%).

Row | Structure (SMILES) | sIPSC decay time in the mutant mice [1] | S408/9 phosphorylation in GT1-7 cells [2] | GABA-evoked currents recorded from GT1-7 cells [3] | SGE-516 enhancement of sIPSC amplitude in presence of GFX ([4]; 100 nM SGE-516 with GFX) | sIPSC amplitude following exposure and wash ([4]; 100 nM, 15 min, >30 min wash) | pS443 immunoreactivity in hippocampal slices [5] | total α4 levels [5] | phosphorylation of S443 and S408/9 in the brains of mice [6] | tonic current in S408/9A mice [7] | increase of plasma membrane levels of GABAARs in slices from S408/9A mice [8]
1 | CC(=O)[C@H]1CC[C@H]2[C@@H]3CC[C@H]4C[C@H](O)CC[C@]4(C)[C@H]3CC[C@]12C [ALLO, Allopregnanolone] | did not increase | increase | sustained increases |  |  |  |  |  |  | 
2 | C[C@@]1(O)CC[C@@]2(C)[C@H](CC[C@@H]3[C@@H]2CC[C@]2(C)[C@@H](C(=O)Cn4nccn4)CC[C@@H]32)C1 [SGE-516] |  |  |  | significantly reduced | significantly enhanced | increased | unaffected | increased | did not modify | not seen
